Measurements: patent US9050341B2, “Methods of treating drug resistant and other tumors by administering 6,7-dialkoxy quinazoline derivatives” (NATCO PHARMA LIMITED, priority 2009, dated 2015)

What was measured:
Experiment in all cases: KinomeScan kinase profiling
Type in all cases: binding
[1] = biological target: T1, RPS6KA6 (Kin.Dom.-1-N-terminal) (Homo sapiens, UniProt Q9UK32)
T1 construct: RPS6KA6 (Kin.Dom.-1-N-terminal); host or cells: E. coli host derived from BL21, T7 phage lysate
Outline: (§1)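 Kinases were expressed as T7 phage fusions in a BL21-derived E. coli host and the cleared lysates were used. Ligand beads were blocked with biotin and buffer (1% BSA, 0.05% Tween 20, 1 mM DTT). Compounds came from 40× DMSO stocks, and phage in the eluates was titred by qPCR.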

ULK3 = biological target: T2, ULK3 (Homo sapiens, UniProt Q6PHR2)
T2 construct: purchased Ambit Biosciences Corp (KinomeScan); host or cells: E. coli host derived from the BL21 strain (T7 phage lysate)
T2 sequence (Q6PHR2 whole entry): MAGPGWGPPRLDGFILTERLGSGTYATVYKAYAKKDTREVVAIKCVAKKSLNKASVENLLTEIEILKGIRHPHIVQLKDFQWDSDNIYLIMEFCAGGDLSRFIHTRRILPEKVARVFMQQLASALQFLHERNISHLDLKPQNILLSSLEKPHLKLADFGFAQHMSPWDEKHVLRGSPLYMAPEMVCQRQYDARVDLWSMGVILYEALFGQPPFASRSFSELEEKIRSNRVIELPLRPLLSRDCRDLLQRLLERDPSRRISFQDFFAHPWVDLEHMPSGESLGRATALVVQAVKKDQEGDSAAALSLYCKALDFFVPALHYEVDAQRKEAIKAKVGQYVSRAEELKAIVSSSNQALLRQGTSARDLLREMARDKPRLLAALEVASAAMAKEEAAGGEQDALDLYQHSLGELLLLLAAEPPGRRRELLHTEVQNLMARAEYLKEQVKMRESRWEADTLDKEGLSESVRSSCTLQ
Outline: as §1

CLK1 = biological target: T3, CLK1 (Homo sapiens, UniProt P49759)
T3 construct: host or cells: T7 phage in E. coli (BL21-derived)
Outline: as §1

[2] = biological target: T4, RPS6KA5 (Kin.Dom.-1-N-terminal) (Homo sapiens, UniProt O75582)
T4 construct: RPS6KA5 (Kin.Dom.-1-N-terminal); host or cells: E. coli host derived from BL21, T7 phage lysate
T4 sequence (O75582 49-318 limits assumed): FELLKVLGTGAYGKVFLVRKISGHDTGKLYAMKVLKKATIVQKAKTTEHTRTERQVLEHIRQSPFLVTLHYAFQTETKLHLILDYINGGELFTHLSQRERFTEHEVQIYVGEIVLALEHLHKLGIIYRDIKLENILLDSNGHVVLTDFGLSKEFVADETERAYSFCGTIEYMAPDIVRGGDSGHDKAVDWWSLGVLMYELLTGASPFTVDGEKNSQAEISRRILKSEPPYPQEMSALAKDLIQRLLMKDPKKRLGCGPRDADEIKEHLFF
Outline: as §1

ALK = biological target: T5, ALK (Homo sapiens, UniProt Q9UM73)
T5 construct: host or cells: E. coli host derived from BL21 (T7 phage lysate)
Outline: as §1

RIPK2 = biological target: T6, RIPK2 (Homo sapiens, UniProt O43353)
T6 construct: host or cells: E. coli host derived from BL21, T7 phage lysate
T6 sequence (O43353 whole entry): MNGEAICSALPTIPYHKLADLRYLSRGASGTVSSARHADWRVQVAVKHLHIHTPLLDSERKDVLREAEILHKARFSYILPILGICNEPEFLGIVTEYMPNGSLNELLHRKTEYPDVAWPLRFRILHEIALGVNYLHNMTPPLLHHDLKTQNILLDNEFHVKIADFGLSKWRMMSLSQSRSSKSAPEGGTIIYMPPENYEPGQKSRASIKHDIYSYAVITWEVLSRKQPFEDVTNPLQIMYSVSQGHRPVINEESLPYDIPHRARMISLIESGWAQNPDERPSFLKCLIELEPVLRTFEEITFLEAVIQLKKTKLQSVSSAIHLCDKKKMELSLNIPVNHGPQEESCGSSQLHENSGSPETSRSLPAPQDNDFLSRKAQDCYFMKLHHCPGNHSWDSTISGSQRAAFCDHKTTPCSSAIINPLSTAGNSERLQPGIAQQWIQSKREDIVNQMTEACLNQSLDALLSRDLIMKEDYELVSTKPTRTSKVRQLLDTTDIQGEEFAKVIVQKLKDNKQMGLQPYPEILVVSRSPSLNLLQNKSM
Outline: as §1

ABL1 (E255K) = biological target: T7, ABL1 (E255K) (Homo sapiens, UniProt P00519, E255K)
T7 construct: host or cells: E. coli host derived from BL21 (T7 phage lysate)
Outline: as §1

CSF1R = biological target: T8, CSF1R (Homo sapiens, UniProt P07333)
T8 construct: host or cells: T7 phage in E. coli (BL21-derived)
T8 sequence (P07333 20-972): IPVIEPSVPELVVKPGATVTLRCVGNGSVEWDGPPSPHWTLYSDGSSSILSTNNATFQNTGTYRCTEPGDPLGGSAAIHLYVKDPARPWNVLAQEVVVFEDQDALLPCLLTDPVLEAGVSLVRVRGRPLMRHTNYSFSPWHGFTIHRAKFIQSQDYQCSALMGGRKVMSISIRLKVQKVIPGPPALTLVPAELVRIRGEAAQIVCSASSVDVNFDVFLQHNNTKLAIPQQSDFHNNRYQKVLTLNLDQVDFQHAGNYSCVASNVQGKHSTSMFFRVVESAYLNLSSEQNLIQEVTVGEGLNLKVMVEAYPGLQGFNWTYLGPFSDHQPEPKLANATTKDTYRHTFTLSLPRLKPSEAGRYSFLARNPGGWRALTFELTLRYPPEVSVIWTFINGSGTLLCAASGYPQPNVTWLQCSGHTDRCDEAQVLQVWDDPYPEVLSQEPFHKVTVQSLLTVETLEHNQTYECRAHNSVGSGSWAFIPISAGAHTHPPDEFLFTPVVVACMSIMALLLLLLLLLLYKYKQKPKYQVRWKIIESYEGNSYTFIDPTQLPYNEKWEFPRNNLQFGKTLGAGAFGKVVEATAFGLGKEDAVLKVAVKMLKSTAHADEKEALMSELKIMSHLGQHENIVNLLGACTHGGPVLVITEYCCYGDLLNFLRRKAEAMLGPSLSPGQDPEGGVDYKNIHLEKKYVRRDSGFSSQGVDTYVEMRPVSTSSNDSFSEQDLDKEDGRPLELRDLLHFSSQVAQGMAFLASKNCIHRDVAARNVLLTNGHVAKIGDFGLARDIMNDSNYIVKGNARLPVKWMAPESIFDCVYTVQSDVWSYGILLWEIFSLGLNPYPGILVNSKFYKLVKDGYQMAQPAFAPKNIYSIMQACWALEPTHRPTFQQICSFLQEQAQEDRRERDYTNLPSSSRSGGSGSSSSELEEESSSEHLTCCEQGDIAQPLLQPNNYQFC
Outline: as §1

BTK = biological target: T9, BTK (Homo sapiens, UniProt Q06187)
T9 construct: purchased Ambit Biosciences Corp (KinomeScan); host or cells: E. coli host derived from the BL21 strain, T7 phage
Outline: as §1

ANKK1 = biological target: T10, ANKK1 (Homo sapiens, UniProt Q8NFD2)
T10 construct: host or cells: E. coli host derived from BL21 (T7 phage lysate)
T10 sequence (Q8NFD2 whole entry): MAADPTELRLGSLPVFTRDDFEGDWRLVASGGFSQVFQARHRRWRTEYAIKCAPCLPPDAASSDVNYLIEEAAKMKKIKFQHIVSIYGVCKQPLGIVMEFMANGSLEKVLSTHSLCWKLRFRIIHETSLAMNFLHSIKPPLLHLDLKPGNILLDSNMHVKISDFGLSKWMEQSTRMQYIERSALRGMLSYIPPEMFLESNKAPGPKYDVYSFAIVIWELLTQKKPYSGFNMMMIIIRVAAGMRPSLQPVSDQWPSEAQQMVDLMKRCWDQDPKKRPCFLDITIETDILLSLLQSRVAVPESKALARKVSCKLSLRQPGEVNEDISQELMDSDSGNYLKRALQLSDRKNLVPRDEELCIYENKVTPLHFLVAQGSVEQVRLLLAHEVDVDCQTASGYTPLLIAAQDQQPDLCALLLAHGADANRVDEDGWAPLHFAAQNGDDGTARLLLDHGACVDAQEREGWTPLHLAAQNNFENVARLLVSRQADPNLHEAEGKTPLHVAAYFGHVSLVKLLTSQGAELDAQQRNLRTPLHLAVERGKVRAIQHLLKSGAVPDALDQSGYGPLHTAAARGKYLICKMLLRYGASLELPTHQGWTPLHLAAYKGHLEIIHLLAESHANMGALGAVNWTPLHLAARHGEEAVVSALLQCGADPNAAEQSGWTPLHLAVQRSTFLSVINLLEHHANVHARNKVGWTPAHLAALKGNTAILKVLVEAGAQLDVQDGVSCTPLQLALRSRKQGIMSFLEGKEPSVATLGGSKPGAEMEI
Outline: as §1

[3] = biological target: T11, RPS6KA2 (Kin.Dom.-2-C-terminal) (Homo sapiens, UniProt Q15349)
T11 construct: RPS6KA2 (Kin.Dom.-2-C-terminal); host or cells: E. coli host derived from BL21, T7 phage lysate
Outline: as §1

ERK8 = biological target: T12, ERK8 (Homo sapiens, UniProt Q8TD08)
T12 construct: host or cells: E. coli host derived from BL21, T7 phage lysate
Outline: as §1

ERK3 = biological target: T13, ERK3 (Homo sapiens, UniProt Q16659)
T13 construct: host or cells: E. coli host derived from BL21, T7 phage lysate
T13 sequence (Q16659 whole entry): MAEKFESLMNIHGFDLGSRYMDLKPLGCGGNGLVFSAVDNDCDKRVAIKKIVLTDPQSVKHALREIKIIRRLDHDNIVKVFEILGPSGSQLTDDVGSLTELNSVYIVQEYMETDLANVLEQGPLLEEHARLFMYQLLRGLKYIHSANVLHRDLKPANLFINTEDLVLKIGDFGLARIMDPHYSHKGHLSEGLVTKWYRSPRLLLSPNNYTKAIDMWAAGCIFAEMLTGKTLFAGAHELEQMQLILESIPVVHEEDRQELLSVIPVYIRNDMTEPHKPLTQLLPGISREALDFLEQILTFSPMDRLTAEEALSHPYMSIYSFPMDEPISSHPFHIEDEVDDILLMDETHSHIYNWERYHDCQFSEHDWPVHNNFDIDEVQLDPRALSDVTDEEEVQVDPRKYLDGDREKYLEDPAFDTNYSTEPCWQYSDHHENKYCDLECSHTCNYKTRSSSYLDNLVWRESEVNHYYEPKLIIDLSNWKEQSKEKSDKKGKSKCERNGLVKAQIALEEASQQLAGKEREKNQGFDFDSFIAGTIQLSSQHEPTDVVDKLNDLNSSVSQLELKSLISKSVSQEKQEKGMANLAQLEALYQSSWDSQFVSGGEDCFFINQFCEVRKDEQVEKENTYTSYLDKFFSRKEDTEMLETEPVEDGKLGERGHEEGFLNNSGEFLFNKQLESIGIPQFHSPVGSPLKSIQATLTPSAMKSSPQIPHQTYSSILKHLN
Outline: as §1

CDK7 = biological target: T14, CDK7 (Homo sapiens, UniProt P50613)
T14 construct: host or cells: T7 phage in E. coli (BL21-derived)
Outline: as §1

CAMK1 = biological target: T15, CAMK1 (Homo sapiens, UniProt Q14012)
T15 construct: purchased Ambit Biosciences Corp (KinomeScan); host or cells: E. coli host derived from the BL21 strain, T7 phage
Outline: as §1

PHKG1 = biological target: T16, PHKG1 (Homo sapiens, UniProt Q16816)
T16 construct: host or cells: E. coli host derived from the BL21 strain, infected with T7 phage
Outline: as §1

FER = biological target: T17, FER (Homo sapiens, UniProt P16591)
T17 construct: host or cells: E. coli host derived from BL21, infected with T7 phage
Outline: as §1

RIOK2 = biological target: T18, RIOK2 (Homo sapiens, UniProt Q9BVS4)
T18 construct: host or cells: E. coli host derived from BL21, T7 phage lysate
Outline: as §1

ACVR1 = biological target: T19, ACVR1 (Homo sapiens, UniProt Q04771)
T19 construct: host or cells: E. coli host derived from BL21 (T7 phage lysate)
Outline: as §1

PRKCH = biological target: T20, PRKCH (Homo sapiens, UniProt P24723)
T20 construct: purchased Ambit Biosciences Corp (KinomeScan); host or cells: E. coli host derived from BL21, infected with T7 phage
T20 sequence (P24723 whole entry): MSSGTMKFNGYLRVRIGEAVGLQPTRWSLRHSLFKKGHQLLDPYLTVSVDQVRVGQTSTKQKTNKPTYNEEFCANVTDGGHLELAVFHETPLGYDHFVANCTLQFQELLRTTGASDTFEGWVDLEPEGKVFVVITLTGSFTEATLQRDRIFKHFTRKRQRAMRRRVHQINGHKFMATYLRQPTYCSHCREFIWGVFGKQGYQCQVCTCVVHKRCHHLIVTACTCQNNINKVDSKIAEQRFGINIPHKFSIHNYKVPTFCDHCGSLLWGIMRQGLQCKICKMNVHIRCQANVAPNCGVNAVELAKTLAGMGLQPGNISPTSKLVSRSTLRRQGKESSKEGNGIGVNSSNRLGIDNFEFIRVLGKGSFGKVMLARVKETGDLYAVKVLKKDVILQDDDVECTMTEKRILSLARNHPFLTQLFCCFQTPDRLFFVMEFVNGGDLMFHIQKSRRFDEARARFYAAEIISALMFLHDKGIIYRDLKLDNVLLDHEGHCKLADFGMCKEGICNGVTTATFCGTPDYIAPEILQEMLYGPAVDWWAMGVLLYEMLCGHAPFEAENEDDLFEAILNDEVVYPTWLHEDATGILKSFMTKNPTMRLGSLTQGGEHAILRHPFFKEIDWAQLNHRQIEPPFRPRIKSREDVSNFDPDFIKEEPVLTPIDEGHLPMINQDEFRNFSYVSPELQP
Outline: as §1

CAMKK2 = biological target: T21, CAMKK2 (Homo sapiens, UniProt Q96RR4)
T21 construct: host or cells: T7 phage in E. coli (BL21-derived)
T21 sequence (Q96RR4 whole entry): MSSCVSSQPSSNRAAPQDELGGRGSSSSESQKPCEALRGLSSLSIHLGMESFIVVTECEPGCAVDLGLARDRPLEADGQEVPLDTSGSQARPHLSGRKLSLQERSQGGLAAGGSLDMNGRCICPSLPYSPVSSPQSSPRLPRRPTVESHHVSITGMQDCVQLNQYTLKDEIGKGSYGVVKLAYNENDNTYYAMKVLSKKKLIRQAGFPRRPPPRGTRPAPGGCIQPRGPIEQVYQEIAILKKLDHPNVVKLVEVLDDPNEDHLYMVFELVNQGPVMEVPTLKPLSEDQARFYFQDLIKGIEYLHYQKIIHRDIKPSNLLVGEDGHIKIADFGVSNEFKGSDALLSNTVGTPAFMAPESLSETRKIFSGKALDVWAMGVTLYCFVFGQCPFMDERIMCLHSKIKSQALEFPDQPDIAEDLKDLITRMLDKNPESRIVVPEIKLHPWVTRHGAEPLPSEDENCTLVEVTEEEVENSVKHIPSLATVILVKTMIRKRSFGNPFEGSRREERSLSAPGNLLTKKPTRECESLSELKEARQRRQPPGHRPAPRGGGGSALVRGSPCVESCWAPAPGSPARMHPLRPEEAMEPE
Outline: as §1

Compound: C#Cc1cccc(Nc2ncnc3cc(OC)c(OCCCN4CCOCC4)cc23)c1 [NRC-2694, N-(3-ethylnylphenyl)-7-methoxy-6-[3-(4-morpholinyl)propoxy]-4-quinazolinamine]
- % Ctrl @ 10000 nM [1]: 94 % Ctrl
- % Ctrl @ 10000 nM (ULK3): 62 % Ctrl
- % Ctrl @ 10000 nM (CLK1): 31 % Ctrl
- % Ctrl @ 10000 nM [2]: 85 % Ctrl
- % Ctrl @ 10000 nM (ALK): 10 % Ctrl
- % Ctrl @ 10000 nM (RIPK2): 2.4 % Ctrl
- % Ctrl @ 10000 nM (ABL1 (E255K)): 80 % Ctrl
- % Ctrl @ 10000 nM (CSF1R): 50 % Ctrl
- % Ctrl @ 10000 nM (BTK): 77 % Ctrl
- % Ctrl @ 10000 nM (ANKK1): 73 % Ctrl
- % Ctrl @ 10000 nM [3]: 78 % Ctrl
- % Ctrl @ 10000 nM (ERK8): 62 % Ctrl
- % Ctrl @ 10000 nM (ERK3): 10 % Ctrl
- % Ctrl @ 10000 nM (CDK7): 0.55 % Ctrl
- % Ctrl @ 10000 nM (CAMK1): 65 % Ctrl
- % Ctrl @ 10000 nM (PHKG1): 50 % Ctrl
- % Ctrl @ 10000 nM (FER): 94 % Ctrl
- % Ctrl @ 10000 nM (RIOK2): 43 % Ctrl
- % Ctrl @ 10000 nM (ACVR1): 61 % Ctrl
- % Ctrl @ 10000 nM (PRKCH): 83 % Ctrl
- % Ctrl @ 10000 nM (CAMKK2): 60 % Ctrl
